Source: US20070010488A1, “Compounds for modulating cell proliferation” (priority 2005, published 2007)
pIC50: −log10 of the molar value. “And” between values parts separate entries of the source, which are not always exact repeats. Equal entries are not always repeated. Where two headings read alike, the source gives them in different places.

Key:
K562 (CML) = test: Trypan Blue Dye Exclusion and Cell Counting Assay, K562; type: cell-based; conditions: Homo sapiens, 72 hours
Description: (§1) Each test compound was weighed between the ranges of 0.5-2.0 mg, and then dissolved in a specified volume of DMSO to produce a solution of 10 mM. Appropriate dilutions in cell culture medium were made to produce a stock solution of 400 μM. All subsequent dilutions were also done in cell culture medium. This stock solution was then used for further dilutions to produce the initial concentration to be added to the 50 μL and 450 μL of cells in the 96-well and the 48-well microtiter plates, respectively:
The initial concentration for cells that were cultured in 50 μL 96-well plates was 40 μM. Once 50 μL of this test solution was added to the cells, this then produced a final dilution of 1:2, giving the desired concentration of 20 μM. Further 1:2 dilutions were made until the desired concentration of […] was reached.
Compound 1 was used as positive control at concentrations of 1 μM and 3 μM. Cells were incubated with the test compounds for 72 hours. C1 and OCI-AML2 and RPMI8226 cell culture media were assayed by addition of 20 μL of Alamar Blue reagent and incubated for 4 hours before reading. Cell counting was utilised for K562 and DAUDI. [drawing 13] […]
(§2) 50 μL of cell culture medium containing the test compound was added to each well twenty four hours after seeding. […] Proliferation of cells was assessed using the fluorimetric Alamar Blue (CellTiter Blue) test and cell counting.

RS4-11 (B-ALL) = test: Alamar Blue cell viability assay, RS4-11; type: cell-based; conditions: Homo sapiens, 72 hours
Description: as §1
The initial concentration for cells that were cultured in 50 μL 96-well plates was 40 μM. […]
as §2
For the Alamar Blue assay, untreated cells were used as growth controls. Data were assessed in duplicates. […] The Alamar Blue cell viability assay was used to determine the IC50 concentrations for the inhibition of cell proliferation or induction of cell death by the ets articles as well as the reference Compound A. Primary data from all assays were plotted for each test compound, cell system and test concentration, with the y-axis representing the readout for cell proliferation/viability and the x-axis representing the compound concentration (μM). […]

[1] = Mouse pharmacokinetics, intravenous and oral, plasma LC/MSMS; type: in vivo; conditions: Mice CD1; for bioavailability: read-out: Bioavailability factor
Description: Compound A (Stored at ca. +5° C.)
Formulation preparation for oral routes: […]
Animal Phase: • Species: Mice CD1 (supplied from Harlan, France) • Routes tested: Intravenous (Mice Nos.39 to 52 incl.), oral low dose (Mice Nos.53 to 63 incl.) and oral high dose (Mice Nos.65 to 76 incl.) • Animals were not fasted.
Times of blood sampling performed from the abdominal aorta (2 animals per time point): • Intravenous route (IV): 5 min, 15 min, 30 min, 1 h, 2 h, 6 h and 24 h • Oral routes (PO): 15 min, 30 min, 1 h, 3 h, 6 h and 24 h
Plasma was harvested by centrifugation of blood at 3500 g for 10 minutes at ca. +5° C.
Plasma was stored at ca. −20° C. until analysis.
Analytical method: LC/MSMS after extraction
Calibration undertaken in plasma (5 levels in mice, twice injected, ranging from 10 to 1000 ng.mL^−1)
HPLC Conditions: • Colonne: Zorbax C18 50×2.1 mm, 3.5 μm • Filter: A102X 5 μm • Injected volume: 20 μL • Mobile phase flow: 0.1 mL.min^−1 • Autosampler temperature: ca. +5° C. • Oven temperature: ca. +30° C. • Run time: 10 min • Mobile phase: deionized water with 0.1% formic acid/methanol with 0.1% formic acid; 30:70 v/v (isocratic) • Retention time: ca. 2.1 min
Extraction Method for Plasma Sample: • 50 μL of plasma combined with 100 μL of methanol • Vortexed a few seconds • Centrifuged 3 min at 13 000 rpm at ca. +5° C. • Diluted 50 μL of the supernatant with 50 μL of deionized water in a HPLC vial for injection • Vortexed a few seconds • Injected into the HPLC/MSMS system Extraction Method for Plasma Calibration Sample: • 50 μL of plasma sample combined with 100 μL of spiking solution • Vortexed a few seconds • Centrifuged 3 min at 13 000 rpm at ca. +5° C. • Diluted 50 μL of the supernatant with 50μL of deionized water in a HPLC vial for injection • Vortexed a few seconds • Injected into the HPLC/MSMS system Results: Animal and Analytical Phase Results: […]

[2] = mouse, plasma, intravenous 3.83 mg/kg
[3] = mouse, plasma, oral high dose 50.2 mg/kg
[4] = mouse, plasma, oral low dose 10.0 mg/kg

Q: With CCN1C/C(=C\c2cc(OC)c(OC)c(OC)c2)C(=O)/C(=C/c2cc(OC)c(OC)c(OC)c2)C1 [Compound A] as the compound, how does the pIC50 (K562 (CML)) read?
A: Its pIC50 is 5.60.

Q: And the pIC50 (RS4-11 (B-ALL))?
A: Its pIC50 is 6.35.

Q: What about the concentration at 0.083 h ([1]; CD1, mouse, plasma, iv, 3.83 mg/kg, intravenous 3.83 mg/kg, 0.083 h, individual mice, read-out: Plasma levels) of the same compound?
A: Its concentration at 0.083 h is 200 ng/mL.

Q: What about the concentration at 0.25 h ([1]; CD1, mouse, plasma, iv, 3.83 mg/kg, intravenous 3.83 mg/kg, 0.25 h, individual mice, read-out: Plasma levels) of the same compound?
A: Its concentration at 0.25 h is 64.4 ng/mL.

Q: What about the concentration at 0.5 h ([1]; CD1, mouse, plasma, iv, 3.83 mg/kg, intravenous 3.83 mg/kg, 0.5 h, individual mice, read-out: Plasma levels) of the same compound?
A: Its concentration at 0.5 h is 57.5 ng/mL.

Q: What about the concentration at 2 h ([1]; CD1, mouse, plasma, iv, 3.83 mg/kg, intravenous 3.83 mg/kg, 2 h, individual mice, read-out: Plasma levels) of the same compound?
A: Its concentration at 2 h is 17.9 ng/mL.

Q: What about the concentration at 0.5 h ([1]; CD1, mouse, plasma, po, 10 mg/kg, oral low dose 10.0 mg/kg, 0.5 h, individual mice, read-out: Plasma levels) of the same compound?
A: The concentration at 0.5 h was 71.7 ng/mL.

Q: What about the concentration at 1 h ([1]; CD1, mouse, plasma, po, 10 mg/kg, oral low dose 10.0 mg/kg, 1 h, individual mice, read-out: Plasma levels) of the same compound?
A: Its concentration at 1 h is 83.5 ng/mL.

Q: What about the concentration at 3 h ([1]; CD1, mouse, plasma, po, 10 mg/kg, oral low dose 10.0 mg/kg, 3 h, individual mice, read-out: Plasma levels) of the same compound?
A: Its concentration at 3 h is 41.7 ng/mL.

Q: And the concentration at 24 h ([1]; CD1, mouse, plasma, po, 10 mg/kg, oral low dose 10.0 mg/kg, 24 h, individual mice, LOQ 10 ng · mL^−1, ND: Not Detectable, read-out: Plasma levels)?
A: Its concentration at 24 h is 5.8 ng/mL.

Q: What about the concentration at 0.25 h ([1]; CD1, mouse, plasma, po, 50.2 mg/kg, oral high dose 50.2 mg/kg, 0.25 h, individual mice, read-out: Plasma levels) of the same compound?
A: Its concentration at 0.25 h is 819 ng/mL.

Q: What about the concentration at 0.5 h ([1]; CD1, mouse, plasma, po, 50.2 mg/kg, oral high dose 50.2 mg/kg, 0.5 h, individual mice, read-out: Plasma levels) of the same compound?
A: Its concentration at 0.5 h is 434 ng/mL.

Q: And the concentration at 1 h ([1]; CD1, mouse, plasma, po, 50.2 mg/kg, oral high dose 50.2 mg/kg, 1 h, individual mice, read-out: Plasma levels)?
A: Its concentration at 1 h is 175 ng/mL.

Q: And the concentration at 3 h ([1]; CD1, mouse, plasma, po, 50.2 mg/kg, oral high dose 50.2 mg/kg, 3 h, individual mice, read-out: Plasma levels)?
A: The concentration at 3 h was 137 ng/mL.

Q: And the “% AUCextra” value ([1]; intravenous 3.83 mg/kg)?
A: The value was 3.2%.

Q: And the Plasma levels ([1]; intravenous 3.83 mg/kg, 0.083 h, individual mice, 3.83 mg/kg)?
A: The Plasma levels was 333.91 ng/mL.

Q: And the Plasma levels ([1]; intravenous 3.83 mg/kg, 0.25 h, individual mice, 3.83 mg/kg)?
A: The Plasma levels was 85.28 ng/mL.

Q: And the Plasma levels ([1]; intravenous 3.83 mg/kg, 0.5 h, individual mice, 3.83 mg/kg)?
A: The Plasma levels was 69.56 ng/mL.

Q: And the Plasma levels ([1]; intravenous 3.83 mg/kg, 1 h, individual mice, 3.83 mg/kg)?
A: Its Plasma levels is 80.73 ng/mL and 39.25 ng/mL.

Q: What about the Plasma levels ([1]; intravenous 3.83 mg/kg, 2 h, individual mice, 3.83 mg/kg) of the same compound?
A: The Plasma levels was 12.9 ng/mL.

Q: What about the Plasma levels ([1]; intravenous 3.83 mg/kg, 6 h, individual mice, LOQ 10 ng · mL^−1, 3.83 mg/kg) of the same compound?
A: The Plasma levels was 14.94 ng/mL and 7.29 ng/mL.

Q: And the Plasma levels ([1]; intravenous 3.83 mg/kg, 24 h, individual mice, LOQ 10 ng · mL^−1, 3.83 mg/kg)?
A: The Plasma levels was 1.68 ng/mL and 0.36 ng/mL.

Q: And the “% AUCextra” value ([1]; oral high dose 50.2 mg/kg)?
A: Its value is 0.57%.

Q: And the Plasma levels ([1]; oral high dose 50.2 mg/kg, 0.25 h, individual mice, 50.2 mg/kg)?
A: The Plasma levels was 444.58 ng/mL.

Q: What about the Plasma levels ([1]; oral high dose 50.2 mg/kg, 0.5 h, individual mice, 50.2 mg/kg) of the same compound?
A: The Plasma levels was 393.99 ng/mL.

Q: What about the Plasma levels ([1]; oral high dose 50.2 mg/kg, 1 h, individual mice, 50.2 mg/kg) of the same compound?
A: Its Plasma levels is 213.68 ng/mL.

Q: And the Plasma levels ([1]; oral high dose 50.2 mg/kg, 3 h, individual mice, 50.2 mg/kg)?
A: The Plasma levels was 160.65 ng/mL.

Q: What about the Plasma levels ([1]; oral high dose 50.2 mg/kg, 6 h, individual mice, 50.2 mg/kg) of the same compound?
A: Its Plasma levels is 23.07 ng/mL and 137.34 ng/mL.

Q: What about the Plasma levels ([1]; oral high dose 50.2 mg/kg, 24 h, individual mice, LOQ 10 ng · mL^−1, 50.2 mg/kg) of the same compound?
A: Its Plasma levels is 2.36 ng/mL and 1.04 ng/mL.

Q: What about the “% AUCextra” value ([1]; oral low dose 10.0 mg/kg) of the same compound?
A: Its value is 4.1%.

Q: What about the Plasma levels ([1]; oral low dose 10.0 mg/kg, 0.25 h, individual mice, 10 mg/kg) of the same compound?
A: Its Plasma levels is 67.54 ng/mL and 178.37 ng/mL.

Q: What about the Plasma levels ([1]; oral low dose 10.0 mg/kg, 0.5 h, individual mice, 10 mg/kg) of the same compound?
A: The Plasma levels was 83.39 ng/mL.

Q: And the Plasma levels ([1]; oral low dose 10.0 mg/kg, 1 h, individual mice, 10 mg/kg)?
A: Its Plasma levels is 70.35 ng/mL.

Q: And the Plasma levels ([1]; oral low dose 10.0 mg/kg, 3 h, individual mice, 10 mg/kg)?
A: The Plasma levels was 40.47 ng/mL.

Q: What about the Plasma levels ([1]; oral low dose 10.0 mg/kg, 6 h, individual mice, LOQ 10 ng · mL^−1, 10 mg/kg) of the same compound?
A: The Plasma levels was 2.67 ng/mL and 6.30 ng/mL.

Q: What about the AUC [1, 2] of the same compound?
A: Its AUC is 254 ng·h/mL.

Q: What about the AUC(0-t) [1, 2] of the same compound?
A: Its AUC(0-t) is 246 ng·h/mL.

Q: What about the Vd [1, 2] of the same compound?
A: Its Vd is 119 L/kg.

Q: And the clearance ([1]; mouse, plasma, intravenous 3.83 mg/kg, read-out: Total Clearance (converted))?
A: The clearance was 251 mL/min/kg.

Q: And the half-life ([1]; mouse, plasma, intravenous 3.83 mg/kg, read-out: T½ (converted))?
A: Its half-life is 330 min.

Q: And the AUC [1, 3]?
A: Its AUC is 1400 ng·h/mL.

Q: And the AUC(0-t) [1, 3]?
A: Its AUC(0-t) is 1390 ng·h/mL.

Q: And the Cmax [1, 3]?
A: Its Cmax is 632 ng/mL.

Q: And the Tmax [1, 3]?
A: Its Tmax is 15 min.

Q: And the bioavailability ([1]; mouse, plasma, oral high dose 50.2 mg/kg vs intravenous)?
A: Its bioavailability is 43.4%.

Q: What about the AUC [1, 4] of the same compound?
A: Its AUC is 321 ng·h/mL.

Q: What about the AUC(0-t) [1, 4] of the same compound?
A: Its AUC(0-t) is 308 ng·h/mL.

Q: What about the Cmax [1, 4] of the same compound?
A: The Cmax was 123 ng/mL.

Q: And the Tmax [1, 4]?
A: The Tmax was 15 min.

Q: And the bioavailability ([1]; mouse, plasma, oral low dose 10.0 mg/kg vs intravenous)?
A: The bioavailability was 48%.
